According to ChEMBL document CHEMBL1128206, “Substituted 2-azaspiro[5.3]nonan-1-ones as potent cholesterol absorption inhibitors: defining a binding conformation for SCH 48461” (1995):

Assays:
[1] = tested on: Cricetinae gen. sp.; assay: Effective concentration was evaluated when liver cholesterol ester level reduction was 17%; type: functional, Cricetulus griseus
[2] = tested on: Cricetinae gen. sp.; assay: Effective concentration was evaluated when liver cholesterol ester level reduction was 87%; type: functional, Cricetulus griseus
[3] = Compound was evaluated in vivo for the reduction of liver cholesterol ester level at the rate 5 mpk; type: functional
[4] = Compound was evaluated in vivo for the reduction of liver cholesterol ester level at the rate 10 mpk; type: functional
[5] = Compound was evaluated in vivo for the reduction of liver cholesterol ester level at the rate 50 mpk; type: functional

SMILES: COc1ccc([C@@H]2N(c3ccc(OC)cc3)C(=O)C23CCC(c2ccccc2)CC3)cc1 (stereo partly drawn)
- ED50 [1]: 3 mg/kg
- ED50 [2]: > 50 mg/kg

SMILES: COc1ccc([C@H]2[C@H](CCCc3ccccc3)C(=O)N2c2ccc(OC)cc2)cc1
- L/CE [3]: 0%

SMILES: COc1ccc([C@@H]2[C@H](CCCc3ccccc3)C(=O)N2c2ccc(OC)cc2)cc1
- L/CE [4]: 69%
- L/CE [5]: 0%

SMILES: COc1ccc([C@H]2[C@@H](CCCc3ccccc3)C(=O)N2c2ccc(OC)cc2)cc1
- L/CE [4]: 0%

SMILES: COc1ccc([C@@H]2[C@@H](CCCc3ccccc3)C(=O)N2c2ccc(OC)cc2)cc1 [SCH-48461]
- L/CE [3]: 66%
- L/CE [5]: 0%
